Experimental data: patent publication US12617807B2, “Long lasting opioid reversal using hydrogen peroxide-induced release in blood” (University of Cincinnati, priority 2021, dated 2026)
Values after ≈ are worked out from the molar mass of the structure shown.

What was measured:
[1] = tested on: 4-NHE (marker of ROS damage); assay: ROS changes in blood of mice, ELISA for 4-NHE; settings: for effect on ROS levels: injected together with morphine
Excerpt: This was accomplished using an ELISA assay for 4-NHE that is a marker of ROS damage. See FIG. 9A for an illustration of the process. After a short period, serum was collected and quantification of 4-NHE against spiked blood standards was accomplished using an appropriate antibody.

renarcotization = assay: simulated renarcotization, supplemental opioid dose after rescue; settings: for survival (rescue rate) after initial opioid overdose: initial overdose 400 mg/kg
Experimental: Experiments were conducted to examine the effect of the prodrug of the present invention in a simulated renarcotization situation.

[2] = tested on: opioid-induced respiratory failure and death; assay: rescue of mice from lethal dose of morphine (survival); format: in vivo
Experimental: Experiments were conducted to determine if NPD-2 can rescue a mouse from opioid-induced respiratory failure and death. Mice were administered a lethal dose of morphine by injection intraperitoneally (IP, 400 mg/kg). […] A survival percentage was calculated and graphed.

[3] = in vivo; cited from earlier work
[4] = naloxone in serum of injected mice by LCMS; format: in vivo
Experimental: After 30 minutes the mice were sacrificed. Blood was harvested and allowed to coagulate. Serum was harvested. A small amount of naloxone-D5 was spiked in, 9 vol of MeOH were added, and cooled for 30 min. After centrifugation the supernatant from each sample was dried and submitted to LCMS. […] FIG. 7 is a graph showing the results of the experiment.
Another experiment was conducted following the methodology of Example 1, except the mice were sacrificed at 2 hours instead of 30 minutes. FIG. 8 is a graph showing the results of the experiment.

[5] = max solubility in 1×PBS, 20% PEG400; format: physicochemical; settings: 1×PBS with 20% PEG400, aqueous with cosolvent or surfactant or cyclodextrin
[6] = 6 mg/kg IP 15 min after morphine 400 mg/kg IP
[7] = 2 mg/kg IP 15 min after morphine 400 mg/kg IP
[8] = 4 mg/kg IP 15 min after morphine 400 mg/kg IP
[9] = 7 mg/kg IP 15 min after morphine 400 mg/kg IP
[10] = 15 mg/kg IP 15 min after morphine 400 mg/kg IP

C=CCN1CC[C@]23c4c5ccc(O)c4O[C@H]2C(=O)CC[C@@]3(O)[C@H]1C5 [naloxone, reference compound]
effect on ROS levels [1]: reduces the ROS levels back to saline treated levels
survival (rescue rate) after initial opioid overdose (renarcotization; 6 mg/kg): 80%
# dead [2, 6]: 1
Survival percent [2, 6]: 75%
Survival rate [2, 6]: 0.75
metabolic stability [3]: metabolically instable

C=CCN1CCC23c4c5ccc(OCc6ccc(B(O)O)cc6)c4O[C@@H]2C(=O)CC[C@@]3(O)C1C5 (some centres unmarked) [PS-NPD-2]
effect on ROS levels [1]: reduces the ROS levels back to saline treated levels
half-life ([4]; inferred from 2 hour naloxone level in mice): potentially longer half-life
naloxone concentration in blood/serum ([4]; mice, 30 minutes after injection, LCMS): higher concentrations of naloxone
naloxone in blood compared to naloxone ([4]; mice, 2 hours after injection, LCMS): more naloxone in mice blood compared to naloxone
survival (rescue rate) after initial opioid overdose (renarcotization; 15 mg/kg): 80%
number of surviving animals after supplemental opioid (renarcotization; prodrug 15 mg/kg vs naloxone 6 mg/kg, supplemental opioid dose 25 mg/kg, N=8 each group): higher number of surviving animals than naloxone
# dead [2, 7]: 8
Survival percent [2, 7]: 0%
Survival rate [2, 7]: 0
# dead [2, 8]: 1
Survival percent [2, 8]: 0%
Survival rate [2, 8]: 0
# dead [2, 9]: 4
Survival percent [2, 9]: 0%
Survival rate [2, 9]: 0
# dead [2, 10]: 1
Survival percent [2, 10]: 87.5%
Survival rate [2, 10]: 0.875
solubility [5]: ~50 mg/mL (≈ 108 mM)

CN1CC[C@]23c4c5ccc(O)c4O[C@H]2[C@@H](O)C=C[C@H]3[C@H]1C5 [morphine, reference compound]
increase of ROS (4-NHE) ([1]; mouse serum, compound alone): more than 10 fold
# dead ([2]; morphine 400 mg/kg IP alone): 2
Survival percent ([2]; morphine 400 mg/kg IP alone): 0%
Survival rate ([2]; morphine 400 mg/kg IP alone): 0
